The source made the active and inactive calls. The rule behind the calls is not given here.

The source of these data is ChEMBL document CHEMBL4406894, “Design, synthesis and biological evaluation of novel desloratadine derivatives with anti-inflammatory and H1 antagonize activities” (Bioorg Med Chem Lett, 2019).

Data set [1] has as its system Mus musculus. Kind of data set: Immunosuppressive activity in BALB/C mouse assessed as inhibition in TNFalpha production by TNFalpha level at 5 mg/kg by ELISA. The format is functional. A general note: In an ELISA, binding on a coated surface is turned into a signal by an enzyme label.
Data set [2] has as its system Mus musculus. Briefly: Anti-inflammatory activity in DNFB-induced mouse ear edema model assessed as inhibition in ear swelling at 5 mg/kg relative to control. In kind it is functional.
Data set [3] is filed under the species Mus musculus. The settings on record: BALB/C, at 5 mg/kg.
The nature of data set [4]: Half life in rat liver microsomes incubated for 6 hrs by LC/MS analysis. In kind it is ADME, Microsome. A general note: Liver microsomes are a subcellular fraction often used to study metabolism.
Data set [5] can be described thus: Clearance in ICR mouse at 2.5 mg/kg, iv. In kind it is ADME, organism-based. The settings on record: in vivo.
Data set [6] can be described thus: Half life in Sprague-Dawley rat at 10 mg/kg, po. The format is ADME, organism-based. The settings on record: in vivo.
Data set [7] can be described thus: Toxicity in Sprague-Dawley rat. The settings on record: in vivo.
Data set [8] is described as follows: Half life in ICR mouse at 2.5 mg/kg, iv. The settings on record: in vivo. In kind it is ADME, organism-based.
Data set [9] in a line: Clearance in Sprague-Dawley rat at 2 mg/kg, iv. The format is ADME, organism-based. The settings on record: in vivo.
A short description of data set [10]: Intrinsic clearance in human liver microsomes incubated for 6 hrs by LC/MS analysis. In kind it is ADME, Microsome. To be noted: read-out: CLH.
Data set [11] in a line: Half life in mouse liver microsomes incubated for 6 hrs by LC/MS analysis. In kind it is ADME, Microsome.
Data set [12] can be described thus: Oral bioavailability in Sprague-Dawley rat at 10 mg/kg. The format is ADME, organism-based. To be noted: in vivo.
A short description of data set [13]: Half life in Sprague-Dawley rat at 2 mg/kg, iv. In kind it is ADME, organism-based. The settings on record: in vivo.
Data set [14] is described as follows: Half life in human liver microsomes incubated for 6 hrs by LC/MS analysis. In kind it is ADME, Microsome.
Data set [15] in a line: Toxicity in ICR mouse. The settings on record: in vivo.
Data set [16] is described as follows: Intrinsic clearance in Rat liver microsomes incubated for 6 hrs by LC/MS analysis. The format is ADME, Microsome. The settings on record: read-out: CLH.
Data set [17] is described as follows: Half life in dog liver microsomes incubated for 6 hrs by LC/MS analysis. The format is ADME, Canis lupus familiaris, Microsome.
Data set [18] is described as follows: Intrinsic clearance in dog liver microsomes incubated for 6 hrs by LC/MS analysis. The settings on record: read-out: CLH. The format is ADME, Canis lupus familiaris, Microsome.
Data set [19] is described as follows: Intrinsic clearance in mouse liver microsomes incubated for 6 hrs by LC/MS analysis. The format is ADME, Microsome. The settings on record: read-out: CLH.
Data set [20] is described as follows: Intrinsic clearance in monkey liver microsomes incubated for 6 hrs by LC/MS analysis. In kind it is ADME, Macaca mulatta, Microsome. To be noted: rhesus monkey, read-out: CLH.
A short description of data set [21]: Half life in monkey liver microsomes incubated for 6 hrs by LC/MS analysis. The format is ADME, Macaca mulatta, Microsome. The settings on record: rhesus monkey.

Turning to `COc1ccccc1OC[C@@H](O)CN1CCC(=C2c3ccc(Cl)cc3CCc3cccnc32)CC1`, the Activity with Mus musculus [1] stood at 1.18 ng/mL.

On to `COc1ccccc1OCCCN1CCC(=C2c3ccc(Cl)cc3CCc3cccnc32)CC1`, for which the inhibition in vivo at 5 mg/kg with Mus musculus [2] was determined as 59.5%. Also, the inhibition result in the data set filed under Mus musculus [3] is “Active”.

Regarding `COc1ccccc1OCC(O)CN1CCC(=C2c3ccc(Cl)cc3CCc3cccnc32)CC1` (racemic), the half-life is 3.87 min in data set [4]; 84 min in data set [6]; 28.2 min in [8]; 1.47 min in data set [11]; 54 min in [13]; 7.74 min in data set [14]. This molecule also gave a half-life in data set [17] of 8.76 min. Further, the clearance was found to be 99.5 mL/min/kg in [5] and 19.6 mL/min/kg in [9]. Besides, the MTD in [7] and in data set [15] was 750 mg/kg each time. The microsomal CLint came to 179 µL/min/mg in data set [10], 359 µL/min/mg in [16], 158 µL/min/mg in data set [18] and 945 µL/min/mg in data set [19]. For the same molecule, the inhibition in vivo at 5 mg/kg with Mus musculus [2] amounted to 59.2%. The same molecule gave a bioavailability in data set [12] of 18%. In the data set on Mus musculus [1], the Activity came out at 1.14 ng/mL.

`COc1cccc(OCC(O)CN2CCC(=C3c4ccc(Cl)cc4CCc4cccnc43)CC2)c1` (configuration not stated): the inhibition in vivo at 5 mg/kg with Mus musculus [2] was determined as 43.1%. For the same molecule, in the data set filed under Mus musculus [3], the inhibition result was “Active”.

For `Cc1ccccc1OCC(O)CN1CCC(=C2c3ccc(Cl)cc3CCc3cccnc32)CC1` (configuration not stated), the inhibition in vivo at 5 mg/kg in the data set on Mus musculus [2] amounted to 59.1%. For the same molecule, the inhibition result in the data set filed under Mus musculus [3] is “Active”.

In the case of `OC(COc1ccccc1F)CN1CCC(=C2c3ccc(Cl)cc3CCc3cccnc32)CC1` (configuration not stated), in the data set with Mus musculus [2], the inhibition in vivo at 5 mg/kg was 26%. In addition, the inhibition entry in the data set listed under Mus musculus [3] is “Active”.

Turning to `Clc1ccc2c(c1)CCc1cccnc1C2=C1CCNCC1` [DESLORATADINE], the LD50 in data set [7] and in [15] was 250 mg/kg each time.

Turning to `OC(COc1ccccc1)CN1CCC(=C2c3ccc(Cl)cc3CCc3cccnc32)CC1` (configuration not stated), the inhibition in vivo at 5 mg/kg with Mus musculus [2] turned out to be 59.1%. The inhibition entry in the data set filed under Mus musculus [3] was “Active”.

On to `COc1ccccc1OC[C@H](O)CN1CCC(=C2c3ccc(Cl)cc3CCc3cccnc32)CC1`, for which the Activity with Mus musculus [1] was 1.21 ng/mL.

As to `Cc1ncc2n1-c1ccc(Cl)cc1C(c1ccccc1F)=NC2` [MIDAZOLAM], the half-life in [4] was determined as 4.29 min; in data set [11], 8.06 min; in data set [21] it was 3.74 min; in data set [14], 12 min; in data set [17] it was 2.81 min. For the same molecule, the microsomal CLint is 289 µL/min/mg in [10]; 927 µL/min/mg in [20]; 808 µL/min/mg in [16]; 1230 µL/min/mg in [18]; 430 µL/min/mg in data set [19].

By inhibition in vivo is commonly meant the change of the read-out against control, counted positive when it falls. Broadly, the half-life is how long it takes for the measured level to halve. As usually defined, the clearance is the volume of plasma or blood freed of the substance per unit of time. For orientation: bioavailability means the share of a dose that reaches the circulation, judged against a reference dose that is usually intravenous. What is called LD50 is the dose expected to kill half of the subjects tested.
